Experimental data published in patent publication US9586947B2, “Imidazoline derivatives, preparation methods thereof, and their applications in medicine” (priority 2012, dated 2017).
Like-named read-outs stand apart in the source and are kept apart here.

Tests used:
LNCaP cells = experiment: Proliferation inhibition of LNCaP cells (CCK-8); format: cell-based; details: Homo sapiens, 144 h, cultured 3 + 3 days, CCK-8, OD at 450 nm
Method: The following in vitro assay was performed to determine the activity of the compounds of the present invention for inhibiting the proliferation of LNCaP cells.
(1). Cell counting reagent CCK-8 (DOJINDO, CK04)
See experimental procedure from Test Example 1.
After LNCaP cells were cultured for 3 days, the culture medium, test compounds, blank group, and control group were renewed with half of the liquid volume, and were cultured for another 3 days. Then, all 96-well plates were mixed gently with 10 μl of CCK-8 and cultured in an incubator for 2-3 hours under the conditions of 37° C. and 5% CO2. The OD value per well was measured at 450 nm on a Victor3 microplate reader.
(§1) IC50 values were calculated from the data of the inhibition rates of the test compounds at various concentrations.

[1] = test system: PSA secretion of LNCaP cells; experiment: Inhibitory activity on PSA secretion of LNCaP cells; format: cell-based; details: Homo sapiens, 96 h, read-out: IC50 (inhibition of PSA secretion of LNCaP cells)
Method: The following in vitro assay was performed to determine the activity of the compounds of the present invention for inhibiting prostate specific antigen (PSA) secretion of LNCaP cells.
(11). Testosterone culture medium: RIPM 1640 culture medium, 10% CS-FBS, 1% Pen Strep, 1 nM testosterone
LNCaP cells were subcultured in cell culture medium, resuspended in active carbon culture medium, and then inoculated into a 96-well plate (100 μl/well) with an inoculation density of 5×10^4 cells/well.
(§2) The test compounds were dissolved in DMSO (dimethyl sulfoxide) and prepared as a 10 mM stock solution. When used, the stock solution was diluted with 5×DMSO and then diluted with a threefold gradient to obtain 8 gradient concentrations. Then, the 8 gradient concentrations were each diluted with 20× testosterone culture medium, in order to ensure DMSO concentration in each culture system was 0.5%. Diluted test compounds remained to be tested.
10 μl of diluted test compounds were added to a 96-well plate and mixed gently. 10 μl of 0.5% DMSO diluted with active carbon culture medium was added to the blank group, and 10 μl of 0.5% DMSO diluted with testosterone culture medium was added to the control group. The 96-well plate was cultured in an incubator under the conditions of 37° C. and 5% CO2.
After 4 days of incubation, 60 μl of cell cultural supernatants were collected, and the OD450 value per well was measured on a NOVO Star microplate reader using PSA kit (Abnova, KA0208).
as §1

[2] = Pharmacokinetics assay in rats, intragastric administration; format: in vivo; details: Sprague-Dawley, rat, po, male SD rats, 5 mg/kg; for Vd/F: read-out: Apparent Distribution Volume Vz/F; for AUC: read-out: Area Under Curve AUC; for CL/F: read-out: Clearance CLz/F; for half-life: read-out: Half-Life T½ (converted); for MRT: read-out: Mean Residence Time MRT; for Cmax: read-out: Plasma Conc. Cmax
Method: Male rats were used as test animals. The compounds of Example 6, Example 9, Example 11, Example 13, Example 15, Example 16, Example 17, Example 44, and Example 45 were administered intragastrically to rats to determine the drug concentration in plasma at different time points by LC/MS/MS method. The pharmacokinetic behavior of the compounds of the present invention was studied and evaluated in rats.
27 healthy adult male Sprague-Dawley (SD) rats, purchased from SINO-BRITISH SIPPR/BK LAB. ANIMAL LTD., CO, Certificate No.: SCXK (Shanghai) 2008-0016, were divided into 9 groups, with 3 rats in each group.
The appropriate amount of test compounds was weighed and mixed with 0.5% CMC-Na to prepare a 0.5 mg/mL suspension by an ultrasonic method.
After an overnight fast, 27 SD rats were divided into 9 groups, and administered the compounds intragastrically at a dose of 5.0 mg/kg and an administration volume of 10 mL/kg.
Compounds of Example 6, Example 9, Example 11, Example 13, Example 15, Example 16, Example 17, Example 44, and Example 45 were administered intragastrically to rats. Blood samples (0.1 mL) were taken from the orbital sinus before administration, and at 0.5 h, 1.0 h, 2.0 h, 3.0 h, 4.0 h, 6.0 h, 8.0 h, 11.0 h, and 24.0 h after administration, stored in heparinized tubes, and centrifuged for 5 minutes at 3,500 rpm to separate blood plasma. The plasma samples were stored at −20° C. The rats were fed 2 hours after administration.
The concentration of the different test compounds in rat plasma after intragastrically administering the test compounds was determined by LC-MS/MS method. The linearity of the method is 1.00-2000 ng/ml. Plasma samples were analyzed after protein precipitation was accomplished by the addition of methanol.

[3] = test system: PSA secretion of LNCaP-AR cells (AR-overexpressed LNCaP cells); experiment: Agonist activity on PSA secretion of LNCaP-AR cells; format: cell-based; details: 96 h, 4 days, OD value (test compounds)/OD value (blank control), blank control 100
Method: The following in vitro assay was performed to determine the activity of a high concentration of the compounds of the present invention for agitating the PSA secretion of LNCaP-AR cells (AR-overexpressed LNCaP cells, referred to as “LNCaP-AR cells” for short, constructed by a retroviral transfection method).
LNCaP-AR cells were subcultured in cell culture medium, resuspended in active carbon culture medium, and then inoculated into a 96-well plate (100 μl/well) with an inoculation density of 5×10^4 cells/well.
as §2, with “DMSO into the two concentrations of 2 mM” for “5×DMSO”, “0.6 mM.” for “then diluted with a threefold gradient to obtain 8 gradient concentrations.”, “diluted” for “8 gradient”, “active carbon” for “testosterone”
10 μl of diluted test compounds were added to a 96-well plate and mixed gently. 10 μl of 0.5% DMSO diluted with active carbon culture medium was added to the blank control group.
After 4 days of incubation, 60 μl of cell cultural supernatants were collected, and the OD value of PSA per well was measured on a NOVO Star microplate reader using PSA kit (abnova, KA0208).
Agonist activity of the test compounds of the present invention on PSA secretion of LNCaP-AR cells was evaluated by the percentage of OD value (test compounds)/OD value (blank control). When the percentage value is greater than 100, the test compounds have agonist activity on PSA secretion of LNCaP-AR cells compared to the blank control. Conversely, when the percentage value is less than 100, the test compounds have no agonist activity on PSA secretion of LNCaP-AR cells compared to the blank control.

[4] = LNCaP cells, 1 nM testosterone medium, 4 days of incubation, PSA kit OD450

Structure (SMILES)	IC50 (LNCaP cells)	IC50 [1, 4]	Vd/F ([2]; plasma)	AUC ([2]; plasma)	CL/F ([2]; plasma)	half-life ([2]; plasma)	MRT ([2]; plasma)	Cmax ([2]; plasma)	activity at 3 µM [3]	activity at 10 µM [3]	IC50 ([1]; LNCaP)	Vd/F ([2]; in vivo)	AUC ([2]; in vivo)	CL/F ([2]; in vivo)	half-life ([2]; in vivo)	MRT ([2]; in vivo)	Cmax ([2]; in vivo)
CC1(C)C(=O)N(c2ccc(C#N)c(C(F)(F)F)c2)C(=S)N1c1ccc(OC[C@H](O)CO)cc1 [Example 45, (R)-4-(3-(4-(2,3-Dihydroxypropoxy)phenyl)-4,4-dimethyl-5-oxo-2-thioxoimidazolidin-1-yl)-2-(trifluoromethyl)benzonitrile]	74 nM	35 nM	3.27 ± 0.261 L/kg	13000 ± 365 ng·h/mL	6.4 ± 0.18 mL/min/kg	5.9 ± 0.3 h	10 ± 0.6 h	980 ± 173 ng/mL	–	–	–	–	–	–	–	–	–
CC1(C)C(=O)N(c2ccc(C#N)c(C(F)(F)F)c2)C(=S)N1c1ccc(OCCO)c(F)c1 [Example 12, 4-(3-(3-Fluoro-4-(2-hydroxyethoxy)phenyl)-4,4-dimethyl-5-oxo-2-thioxoimidazolidin-1-yl)-2-(trifluoromethyl)benzonitrile]	146 nM	33 nM	–	–	–	–	–	–	69.6%	90.7%	–	–	–	–	–	–	–
CC1(C)C(=O)N(c2ccc(C#N)c(C(F)(F)F)c2)C(=S)N1c1ccc(O[C@H]2COC[C@@H]2O)c(F)c1 [Example 9, 4-(3-(3-fluoro-4-(((3S,4S)-4-hydroxytetrahydrofuran-3-yl)oxy)phenyl)-4,4-dimethyl-5-oxo-2-thioxoimidazolidin-1-yl)-2-(trifluoromethyl)benzonitrile]	–	–	–	–	–	–	–	–	90.8%	85%	26 nM	4.59 ± 0.556 L/kg	18800 ± 3300 ng·h/mL	4.52 ± 0.77 mL/min/kg	11.8 ± 1.1 h	18.3 ± 1.9 h	772 ± 83 ng/mL
CC1(C)C(=O)N(c2ccc(C#N)c(C(F)(F)F)c2)C(=S)N1c1ccc(OCCO)nc1 [Example 10, 4-(3-(6-(2-Hydroxyethoxy)pyridin-3-yl)-4,4-dimethyl-5-oxo-2-thioxoimidazolidin-1-yl)-2-(trifluoromethyl)benzonitrile]	131 nM	23 nM	–	–	–	–	–	–	74.7%	68.1%	–	–	–	–	–	–	–
CC1(C)C(=O)N(c2ccc(C#N)c(C(F)(F)F)c2)C(=S)N1c1ccc(OCC(O)CO)c(F)c1 (centres unmarked) [Example 13, 4-(3-(4-(2,3-Dihydroxypropoxy)-3-fluorophenyl)-4,4-dimethyl-5-oxo-2-thioxoimidazolidin-1-yl)-2-(trifluoromethyl)benzonitrile]	–	–	–	–	–	–	–	–	53.6%	71.5%	88 nM	2.31 ± 0.553 L/kg	26500 ± 7380 ng·h/mL	3.35 ± 1.1 mL/min/kg	8.1 ± 0.65 h	13.1 ± 1.5 h	1550 ± 197 ng/mL
CC1(C)C(=O)N(c2ccc(C#N)c(C(F)(F)F)c2)C(=S)N1c1ccc(OCC2(N)CC2)c(F)c1 [Example 6, 4-(3-(4-((1-Aminocyclopropyl)methoxy)-3-fluorophenyl)-4,4-dimethyl-5-oxo-2-thioxoimidazolidin-1-yl)-2-(trifluoromethyl)benzonitrile]	–	–	–	–	–	–	–	–	93.2%	100%	24 nM	6.02 ± 1.69 L/kg	16800 ± 7480 ng·h/mL	5.75 ± 2.44 mL/min/kg	13.1 ± 4.6 h	17.8 ± 6.2 h	1200 ± 330 ng/mL
CC1(C)C(=O)N(c2ccc(C#N)c(C(F)(F)F)c2)C(=S)N1c1ccc(O[C@@H]2COC[C@H]2O)cc1 [Example 15, 4-(3-(4-(((3R,4R)-4-hydroxytetrahydrofuran-3-yl)oxy)phenyl)-4,4-dimethyl-5-oxo-2-thioxoimidazolidin-1-yl)-2-(trifluoromethyl)benzonitrile]	–	–	–	–	–	–	–	–	77.5%	84.8%	52 nM	3.97 ± 0.341 L/kg	21400 ± 4100 ng·h/mL	3.99 ± 0.75 mL/min/kg	11.7 ± 1.7 h	18.2 ± 2.3 h	999 ± 172 ng/mL
CC1(C)C(=O)N(c2ccc(C#N)c(C(F)(F)F)c2)C(=S)N1c1ccc(OC[C@@H](O)CO)cc1 [Example 44, (S)-4-(3-(4-(2,3-Dihydroxypropoxy)phenyl)-4,4-dimethyl-5-oxo-2-thioxoimidazolidin-1-yl)-2-(trifluoromethyl)benzonitrile]	33 nM	22 nM	2.45 ± 0.376 L/kg	19300 ± 4170 ng·h/mL	4.47 ± 1.08 mL/min/kg	6.41 ± 0.6 h	10.5 ± 1.3 h	1300 ± 275 ng/mL	77.2%	92.7%	–	–	–	–	–	–	–
CC1(C)C(=O)N(c2ccc(C#N)c(C(F)(F)F)c2)C(=S)N1c1ccc(O[C@@H]2COC[C@H]2O)c(F)c1 [Example 8, 4-(3-(3-fluoro-4-(((3R,4R)-4-hydroxytetrahydrofuran-3-yl)oxy)phenyl)-4,4-dimethyl-5-oxo-2-thioxoimidazolidin-1-yl)-2-(trifluoromethyl)benzonitrile]	–	–	–	–	–	–	–	–	65%	99.5%	21 nM	–	–	–	–	–	–
